Values of other authors, collected in patent US20090143313A1 (priority 2004, published 2009).

What was measured:
[1] = system: spleen lymphocytes
[2] = system: 5-FU-immune-suppressed animals; conditions: in vivo
[3] = system: bone marrow cells
[4] = system: immunization with sheep red blood cells; conditions: in vivo
[5] = system: tuberculosis; conditions: human, in vivo

N[C@H](CCC(=O)N[C@@H](Cc1c[nH]c2ccccc12)C(=O)O)C(=O)O [SCV-07, γ-D-glutamyl-L-tryptophan]
Con-A-induced interleukin-2 (IL-2) production and IL-2 receptor expression by spleen lymphocytes [1]: increases | Immunostimulatory effect [2]: strong immunostimulatory effect | Expression of Thy-1.2 on bone marrow cells [3]: stimulates | Immunostimulatory effect [4]: strong immunostimulatory effect | Cavity healing and symptoms of tuberculosis [5]: positive effect | Incidence of mycobacteria-negative sputum cultures [5]: increased
